Measurements: PMC4445002, “Efficient inhibition of tumor angiogenesis and growth by a synthetic peptide blocking S100A4-methionine aminopeptidase 2 interaction” (Molecular Therapy. Methods & Clinical Development, 2015)

Experiments:
[1] = system: MSS31 cells; experiment: Cell cycle progression by BrdU flow cytometry; type: cell-based, mouse; conditions: 9 hours
Description: Since the overexpression of the SBD in MSS31 cells caused DNA synthesis inhibition, we examined the effect of the NBD peptide on cell cycle progression by flow cytometry after treating the cells with various concentrations of the synthetic peptides (0–1.0 μg/well) complexed with atelocollagen for 9 hours.
Figure 8 Inhibition of cell cycle progression and cell growth by the NBD peptide. MSS31 cells were treated with atelocollagen alone or the NBD or the CBD peptide/atelocollagen complex in vitro. (a) Cell cycle progression. The cells were labeled with BrdU and then subjected to flow cytometry. (b) Cell growth. The values represent cell growth rate relative to that of control cells that is set to 100%. The NBD peptide inhibited the growth of MSS31 cells compared to the control cells (atelocollagen alone). Data represent the mean ± SD (n = 4), P < 0.01. TEXT PRINTED IN THE PICTURE: (a) NBD: S:13.2%; G1:70.7%; G2/M:9.6% | (a) CBD: S:32.1%; G1:55.4%; G2/M:8.9% | (a) peptide(−): S:36.7%; G1:49.6%; G2/M:9.7%
MSS31 cells treated with 1.0 μg/ml of the NBD peptide or the CBD peptide/atelocollagen were labeled with 10 μmol/l BrdU for 6 hours. Atelocollagen alone was used as a control. Flow cytometric analysis was carried out using the FITC BrdU Flow Kit (BD Biosciences Pharmigen, San Diego, CA) following the manufacturer’s instructions.

[2] = system: vinculin and integrin β1 focal adhesions in MSS31 cells; experiment: Focal adhesion and F-actin immunofluorescence; type: cell-based, mouse; conditions: 5 μg/well, 18 hours
Description: (§1) Figure 7 Stimulation of the formation of focal contacts by the NBD peptide. MSS31 cells incubated with atelocollagen alone or the peptide/atelocollagen complexes were subjected to immunofluorescent staining and western blot analysis. (a) Formation of focal adhesions. The cells were immunostained with antivinculin or anti-integrin β1 antibody followed by Alexa Fluor 488-conjugated secondary antibody. F-actin was visualized with Atto 647N-Phalloidin. Nuclei were stained with DAPI. Scale bars: 50 μm. (b) Western blot analysis of focal adhesion proteins. Total cellular proteins were subjected to immunoblot analysis. (c) Relative expression level of vinculin (VCN), integrin β1 (ITGβ1) and p-FAK. The band intensity of VCN and ITGβ1 and p-FAK relative to that of β-actin and total FAK, respectively, was measured using ImageJ software and normalized to control cells.
MSS31 cells cultured in six-well plates were incubated with 5 μg/well of the NBD or the CBD peptide/atelocollagen complex or atelocollagen alone for 18 hours in Culture Slides (4 wells, BD Falcon) and were washed three times with DPBS and fixed for 10 minutes at 4 °C with 4% formaldehyde in DPBS. After permeabilizing with 0.5% Triton X-100 in DPBS for 4 minutes, the cells were treated with 3% bovine serum albumin in DPBS containing 0.1% glycine for 1 hour to block nonspecific binding sites. After washing with DPBS, the cells were incubated for 1 hour with primary antibodies, rinsed, and then stained with secondary antibodies. The primary antibodies used were polyclonal anti-S100A4, monoclonal anti-NMIIA antibody, monoclonal antivinculin antibody and polyclonal anti-integrin β1 antibody. The secondary antibody was Alexa Fluor 488-conjugated goat antirabbit IgG (Invitrogen) or Alexa Fluor 594-conjugated goat antimouse IgG (Invitrogen). F-Actin was visualized with Atto 647N-Phalloidin (Sigma-Aldrich). Nuclei were stained with 1 μg/ml DAPI. The slides were mounted with VECTASHIELD Mounting Medium (Vector Laboratories). The cells were observed under a confocal laser scanning microscope (Fluoview FV1000, Olympus, Japan).

[3] = system: PC-3M-Luc cells; experiment: PC-3M-Luc cell growth in vitro; type: cell-based, human
Description: Caspase3/7 assays was performed with Apo-ONE Caspase-3/7 Assay
Reagent (Promega). No significant changes are observed.
F i g . […]
PC-3M-Luc cells were treated with atelocollagen alone or the NBD peptide/atelocollagen complex in vitro, and their growth rate was monitored.
The values represent cell growth rate relative to that of control cells that is […]
MSS31 cells were incubated with the peptide/atelocollagen complexes.
Isolation of total RNA and subsequent qRT-PCR analysis were carried out as described previously (30). The GAPDH gene was used as an internal control.
(a) Proangiogenic genes in NBD and CBD peptides-treated cells. (b)
Antiangiogenic genes in NBD and CBD peptides-treated cells.

[4] = system: vinculin, integrin β1 and FAK in MSS31 cells; experiment: Expression of vinculin, integrin β1 and FAK by western blot; type: cell-based, mouse; conditions: total cell lysates, vs control cells; 5 μg/well, 18 hours
Description: as §1
MSS31 cells cultured in six-well plates were incubated with 5 μg/well of the NBD or the CBD peptide/atelocollagen complex or atelocollagen alone for 18 hours and were lysed in M-PER Mammarian Protein Extraction Reagent (Thermo Fisher Scientific, Waltham, MA) containing complete, EDTA-free, EASYpack (Roche Applied Science, Penzberg, Upper Bavaria, Germany) and Halt Phosphatase Inhibitor Cocktail (Thermo Fisher Scientific). The lysates was used for immunoblot analysis. […]

[5] = 0–1.0 μg/well with atelocollagen

With “NBD: N-terminal 39 amino acid sequence of SBD, from Arg170 to Ileu208; corresponding to MetAP2 (170–208) (REAAEAHRQVRKYVMSWIKPGMTMIEICEKLEDCSRKLI)” the “effect on G2/M phase” value [1, 5] was “not significantly affected”, the “effect on cell cycle progression” value [1, 5] was “leads to cell cycle arrest in the G1/S phase” and the “cells in G2/M phase” value ([1]; atelocollagen complex, BrdU flow cytometry, representative study, without peptide 9.7%) was 9.6%. For the same substance, the “cells in S phase” value ([1]; atelocollagen complex, BrdU flow cytometry, representative study, without peptide 36.7%) was 13.2%, the “cells in G1 phase” value ([1]; atelocollagen complex, BrdU flow cytometry, representative study, without peptide 49.6%) was 70.7% and the “number of focal adhesions per cell” value ([2]; atelocollagen complex, vinculin and integrin β1 staining) was “greater number of vinculin- and integrin β1-containing focal adhesions per cell than the untreated and the CBD peptide-treated cells”. The “distribution of focal adhesions” value ([2]; immunofluorescence) was “focal adhesions were distributed uniformly”, the “formation of actin filaments” value ([2]; phalloidin staining) was “Formation of actin filaments was also prominent” and the “proliferation of PC-3 cells” value ([3]; discussion wording, p53-null cells) was “did not influence the proliferation of PC-3 cells”. For the same substance, the “growth rate of PC-3M-Luc cells” value ([3]; in vitro, NBD peptide/atelocollagen complex, vs untreated, Supplementary Figure S6) was “comparable growth rate to that of untreated cells” and the “expression of vinculin, integrin β1 and FAK” value [4] was “no significant difference in the expressions of vinculin, integrin β1 and FAK”.
